Assay results published in paper PMC5700923, “Second messenger analogues highlight unexpected substrate sensitivity of CD38: total synthesis of the hybrid “L-cyclic inosine 5′-diphosphate ribose”” (Scientific Reports, 2017).
Values belong to the molecule of their own block, whether it stands above or below them.

Key:
CD38 (shCD38) [1] = target: T1, CD38 (shCD38) (Homo sapiens, UniProt P28907); assay: inhibition of cADPR hydrolysis, fluorimetric cycling assay; also hydrolysed by shCD38 (RP-HPLC); format: biochemical; conditions: read-out: L-Ribose / IC50
T1 construct: human CD38 catalytic domain (shCD38)
T1 sequence (P28907 45-300 limits assumed): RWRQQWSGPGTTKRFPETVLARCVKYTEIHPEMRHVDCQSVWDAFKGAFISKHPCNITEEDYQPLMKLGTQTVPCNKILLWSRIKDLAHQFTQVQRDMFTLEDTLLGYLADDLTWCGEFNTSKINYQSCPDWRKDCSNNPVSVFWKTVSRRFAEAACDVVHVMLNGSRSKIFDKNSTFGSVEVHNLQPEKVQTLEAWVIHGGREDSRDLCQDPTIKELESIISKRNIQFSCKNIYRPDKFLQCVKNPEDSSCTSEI

CD38 (shCD38) [2] = target: T1, CD38 (shCD38); assay: inhibition of cADPR hydrolysis, fluorimetric cycling assay; format: biochemical; conditions: read-out: L-Ribose / IC50
Aplysia cyclase = target: T2, Aplysia cyclase (Aplysia californica, UniProt P29241); assay: X-ray crystallography, […] cIDPR (authors' unpublished data, Supplementary Figure S2); format: binding
T2 construct: wild-type
T2 sequence (P29241 25-282): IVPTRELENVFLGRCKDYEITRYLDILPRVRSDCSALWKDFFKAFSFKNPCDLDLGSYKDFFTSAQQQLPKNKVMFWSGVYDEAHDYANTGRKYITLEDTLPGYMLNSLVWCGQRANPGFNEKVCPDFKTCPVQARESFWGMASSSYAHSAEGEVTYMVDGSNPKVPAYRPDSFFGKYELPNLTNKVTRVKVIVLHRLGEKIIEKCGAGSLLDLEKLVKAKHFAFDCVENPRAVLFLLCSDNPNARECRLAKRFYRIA

IC50 (CD38 (shCD38) [1]): 526 ± 36 µM
SMILES: O=c1c2ncn3c2ncn1[C@H]1O[C@@H](COP(=O)(O)OP(=O)(O)OC[C@H]2O[C@@H]3[C@H](O)[C@@H]2O)[C@H](O)[C@@H]1O [compound 5, L-cIDPR]

IC50 (CD38 (shCD38) [2]): 21 ± 2 µM
SMILES: Nc1nc2c(=O)n3cnc2n1[C@@H]1O[C@H](COP(=O)(O)OP(=O)(O)OC[C@@H]2O[C@H]3[C@@H](O)[C@H]2O)[C@@H](O)[C@H]1O [compound 7, 8-NH2-L-cIDPR]

SMILES: O=c1c2ncn3c2ncn1[C@@H]1O[C@H](COP(=O)(O)OP(=O)(O)OC[C@H]2O[C@@H]3[C@H](O)[C@@H]2O)[C@@H](O)[C@H]1O [compound 2, cIDPR]
ligand species seen in crystal structure (Aplysia cyclase): both linear IDPR and the cyclic N1-cIDPR are present and close to each other, with cIDPR in an upside-down orientation
